pKi: −log10 of the molar value. Counter-ions that a name gives are not always drawn.
Assay: Compound was evaluated for the inhibition of Opioid receptor delta 1 binding to guinea pig brain membranes, using 0.2 nM [3H]naltrindole as radioligand

Structure (SMILES)	pKi
CC(=O)Nc1cccc([C@H](CN2CCCC2)N(C)C(=O)Cc2ccc(Cl)c(Cl)c2)c1 [N-[(R)-1-(3-Acetylamino-phenyl)-2-pyrrolidin-1-yl-ethyl]-2-(3,4-dichloro-phenyl)-N-methyl-acetamide; hydrochloride]	5.51
CN(C(=O)Cc1ccc(Cl)c(Cl)c1)[C@@H](CN1CCCC1)c1cccc(NC(=S)Nc2ccc(-c3c4ccc(=O)cc-4oc4cc(O)ccc34)c(C(=O)O)c2)c1 [5-{3-[3-((R)-1-{[2-(3,4-Dichloro-phenyl)-acetyl]-methyl-amino}-2-pyrrolidin-1-yl-ethyl)-phenyl]-thioureido}-2-(6-hydroxy-3-oxo-3H-xanthen-9-yl)-benzoic acid]	7.07
CC(=O)Nc1cccc([C@@H](CN2CCCC2)N(C)C(=O)Cc2ccc(Cl)c(Cl)c2)c1 [N-[(S)-1-(3-Acetylamino-phenyl)-2-pyrrolidin-1-yl-ethyl]-2-(3,4-dichloro-phenyl)-N-methyl-acetamide; hydrochloride]	7.85
CN(C(=O)Cc1ccc(Cl)c(Cl)c1)[C@H](CN1CCCC1)c1cccc(NC(=S)Nc2ccc(-c3c4ccc(=O)cc-4oc4cc(O)ccc34)c(C(=O)O)c2)c1 [5-{3-[3-((S)-1-{[2-(3,4-Dichloro-phenyl)-acetyl]-methyl-amino}-2-pyrrolidin-1-yl-ethyl)-phenyl]-thioureido}-2-(6-hydroxy-3-oxo-3H-xanthen-9-yl)-benzoic acid]	9.05
CN(C(=O)Cc1ccc(Cl)c(Cl)c1)C(CN1CCCC1)c1cccc(NC(=S)Nc2ccc(-c3c4ccc(=O)cc-4oc4cc(O)ccc34)c(C(=O)O)c2)c1 (stereo not given) [5-{3-[3-(1-{[2-(3,4-Dichloro-phenyl)-acetyl]-methyl-amino}-2-pyrrolidin-1-yl-ethyl)-phenyl]-thioureido}-2-(6-hydroxy-3-oxo-3H-xanthen-9-yl)-benzoic acid]	8.74

Reference: BindingDB's records for doi:10.1016/S0960-894X(97)00406-X (1997)
